Consider 23 compounds from patent publication US8691993B2, “Piperidinyl naphthylacetic acids” (Hoffman-La Roche Inc., priority 2011, dated 2014).

For orientation: IC50 means the concentration that inhibits the measured activity by half. Read a low IC50 as higher potency.

The subject of the assay is Th2 cells. Put plainly: DK-PGD2-Induced IL-13 Production Assay in Th2 Cells. The format is cell-based. To be noted: inhibition of IL-13 production; human Th2 cells; 500 nM DK-PGD2; 4 hrs at 37° C.; ELISA. Here is the method:
DK-PGD2-Induced IL-13 Production Assay in Th2 Cells
Inhibition of 13,14-dihydro-15-keto Prostaglandin D2 (DK-PGD2)-induced IL-13 production in T helper type 2 (Th2) cells was applied to evaluate compound cellular potency.
Cultures of Th2 cells were established from blood of healthy human volunteers according to the following procedure. Peripheral blood mononuclear cells (PBMC) were first isolated from 50 mL of fresh blood by Ficoll-Hypaque density gradient centrifugation, followed by CD4^+ cell purification using a CD4^+ T Cell Isolation Kit II (from Miltenyi Biotec Inc.). The CD4^+ T cells were then differentiated to Th2 cells by culturing the cells in X-VIVO 15® medium (from Cambrex BioScience Walkersville Inc.) containing 10% human AB serum (serum of blood type AB from Invitrogen Corporation), 50 U/mL of recombinant human interleukin-2 (rhIL-2) (from PeproTech Inc.) and 100 ng/mL of recombinant human interleukin-4 (rhIL-4) (from PeproTech Inc.) for 7 days. The Th2 cells were isolated using a CD294 (CRTH2) MicroBead Kit (from Miltenyi Biotec Inc.) and amplified in X-VIVO 15® medium containing 10% human AB serum and 50 U/mL of rhIL-2 for 2 to 5 weeks. In general, 70% to 80% of the Th2 cells used in the assay are CRTH2-positive when analyzed by fluorescence-activated cell sorting using the BM16 antibody (as previously described) conjugated to Alexa Fluor 647.
The spontaneous production of IL-13 by Th2 cells was determined in the absence of DK-PGD2 stimulation and the value was subtracted from that in the presence of each compound for percent inhibition and IC50 calculations.
The percent inhibition of interleukin 13 (IL-13) production for a compound at various concentrations was calculated according to the following formula, [1-(IL-13 production in the presence of compound)/(IL-13 production in the presence of 0.15% DMSO)]×100. The IC50 value, defined as the concentration of a compound that is required for 50% inhibition of IL-13 production, was calculated by fitting the percent inhibition data for 7 concentrations to a sigmoidal dose-response (4 parameter logistic) model in the XLfit® software Excel add-in program [ID Business Solutions Ltd., model 205, where F(x)=(A+(B−A)/(1+((C/x)^D)))].
For orientation: In an ELISA, binding on a coated surface is turned into a signal by an enzyme label.
Compound `Cc1c(CC(=O)O)cc2ccc(F)cc2c1C1CCN(S(=O)(=O)c2ccccc2Cl)CC1` [Example 14, {4-[1-(2-Chloro-benzenesulfonyl)-piperidin-4-yl]-6-fluoro-3-methyl-naphthalen-2-yl}-acetic acid] had an IC50 of 33 nM. Compound `Cc1c(CC(=O)O)cc2ccc(F)cc2c1C1CCN(S(C)(=O)=O)CC1` [Example 15, [6-Fluoro-4-(1-methanesulfonyl-piperidin-4-yl)-3-methyl-naphthalen-2-yl]-acetic acid] returned an IC50 of 142 nM. The figure for `Cc1c(CC(=O)O)cc2ccc(F)cc2c1C1CCN(S(=O)(=O)c2ccc(Cl)cc2Cl)CC1` [Example 16, {4-[1-(2,4-Dichloro-benzenesulfonyl)-piperidin-4-yl]-6-fluoro-3-methyl-naphthalen-2-yl}-acetic acid] is 22 nM; for `Cc1c(CC(=O)O)cc2ccc(F)cc2c1C1CCN(S(=O)(=O)c2cc(Cl)ccc2Cl)CC1` [Example 17, {4-[1-(2,5-Dichloro-benzenesulfonyl)-piperidin-4-yl]-6-fluoro-3-methyl-naphthalen-2-yl}-acetic acid] it is 120 nM. `Cc1c(CC(=O)O)cc2ccc(F)cc2c1C1CCN(S(=O)(=O)c2c(Cl)cccc2Cl)CC1` [Example 18, {4-[1-(2,6-Dichloro-benzenesulfonyl)-piperidin-4-yl]-6-fluoro-3-methyl-naphthalen-2-yl}-acetic acid]: it took 58 nM to reach half-maximal inhibition (IC50). Turning to `Cc1c(CC(=O)O)cc2ccc(F)cc2c1C1CCN(S(=O)(=O)Cc2ccccc2)CC1` [Example 19, [6-Fluoro-3-methyl-4-(1-phenylmethanesulfonyl-piperidin-4-yl)-naphthalen-2-yl]-acetic acid], the IC50 is 8 nM.

Compound `COc1ccccc1S(=O)(=O)N1CCC(c2c(C)c(CC(=O)O)cc3ccc(F)cc23)CC1` [Example 20, {6-Fluoro-4-[1-(2-methoxy-benzenesulfonyl)-piperidin-4-yl]-3-methyl-naphthalen-2-yl}-acetic acid] yielded an IC50 of 9 nM.

`Cc1c(CC(=O)O)cc2ccc(F)cc2c1C1CCN(S(=O)(=O)Cc2cccc(Cl)c2)CC1` [Example 21, {4-[1-(3-Chloro-phenylmethanesulfonyl)-piperidin-4-yl]-6-fluoro-3-methyl-naphthalen-2-yl}-acetic acid]: the IC50 came out at 45 nM. The compound `Cc1c(CC(=O)O)cc2ccc(F)cc2c1C1CCN(S(=O)(=O)Cc2ccc(Cl)cc2)CC1` [Example 22, {4-[1-(4-Chloro-phenylmethanesulfonyl)-piperidin-4-yl]-6-fluoro-3-methyl-naphthalen-2-yl}-acetic acid] displayed an IC50 of 23 nM. The compound `Cc1c(CC(=O)O)cc2ccc(F)cc2c1C1CCN(S(=O)(=O)c2cccc(C(F)(F)F)c2)CC1` [Example 23] had a 50% inhibitory concentration (IC50) of 266 nM.

In turn, `Cc1c(CC(=O)O)cc2ccc(F)cc2c1C1CCN(S(=O)(=O)C2CCCC2)CC1` [Example 24, [4-(1-Cyclopentanesulfonyl-piperidin-4-yl)-6-fluoro-3-methyl-naphthalen-2-yl]-acetic acid] came in with an IC50 of 23 nM. `Cc1c(CC(=O)O)cc2ccc(F)cc2c1C1CCN(S(=O)(=O)N2CCCC2)CC1` [Example 25, {6-Fluoro-3-methyl-4-[1-(pyrrolidine-1-sulfonyl)-piperidin-4-yl]-naphthalen-2-yl}-acetic acid] showed an IC50 of 14 nM. For `Cc1c(CC(=O)O)cc2ccc(F)cc2c1C1CCN(S(=O)(=O)Cc2ccccc2[N+](=O)[O-])CC1` [Example 26, {6-Fluoro-3-methyl-4-[1-(2-nitro-phenylmethanesulfonyl)-piperidin-4-yl]-naphthalen-2-yl}-acetic acid], 32 nM corresponded to half-maximal inhibition (IC50).

As to `Cc1c(CC(=O)O)cc2ccc(F)cc2c1C1CCN(S(=O)(=O)Cc2ccccc2N)CC1` [Example 27, {4-[1-(2-Amino-phenylmethanesulfonyl)-piperidin-4-yl]-6-fluoro-3-methyl-naphthalen-2-yl}-acetic acid], the IC50 was determined as 27 nM. With `Cc1c(CC(=O)O)cc2ccc(F)cc2c1C1CCN(C(=O)c2ccc(Cl)cc2Cl)CC1` [Example 28, {4-[1-(2,4-Dichloro-benzoyl)-piperidin-4-yl]-6-fluoro-3-methyl-naphthalen-2-yl}-acetic acid] the figure was 60 nM.

For the compound `Cc1c(CC(=O)O)cc2ccc(F)cc2c1C1CCN(C(=O)c2c(Cl)cccc2Cl)CC1` [Example 29, {4-[1-(2,6-Dichloro-benzoyl)-piperidin-4-yl]-6-fluoro-3-methyl-naphthalen-2-yl}-acetic acid], the IC50 is 20 nM. `Cc1c(CC(=O)O)cc2ccc(F)cc2c1C1CCN(C(=O)c2cc(F)ccc2F)CC1` [Example 30, {4-[1-(2,5-Difluoro-benzoyl)-piperidin-4-yl]-6-fluoro-3-methyl-naphthalen-2-yl}-acetic acid]: the IC50 is 83 nM.

With `Cc1c(CC(=O)O)cc2ccc(F)cc2c1C1CCN(C(=O)Cc2ccccc2)CC1` [Example 31, [6-Fluoro-3-methyl-4-(1-phenylacetyl-piperidin-4-yl)-naphthalen-2-yl]-acetic acid], it took 117 nM to reach half-maximal inhibition (IC50).

`Cc1c(CC(=O)O)cc2ccc(F)cc2c1C1CCN(C(=O)Nc2c(F)cccc2F)CC1` [Example 32, {4-[1-(2,6-Difluoro-phenylcarbamoyl)-piperidin-4-yl]-6-fluoro-3-methyl-naphthalen-2-yl}-acetic acid] came in with an IC50 of 371 nM. The figure for `Cc1c(CC(=O)O)cc2ccc(F)cc2c1C1CCN(C(=O)Nc2ccc(Cl)cc2Cl)CC1` [Example 33, {4-[1-(2,4-Dichloro-phenylcarbamoyl)-piperidin-4-yl]-6-fluoro-3-methyl-naphthalen-2-yl}-acetic acid] is 30 nM. The figure for `Cc1c(CC(=O)O)cc2ccc(F)cc2c1C1CCN(C(=O)Nc2ccccc2Cl)CC1` [Example 34, {4-[1-(2-Chloro-phenylcarbamoyl)-piperidin-4-yl]-6-fluoro-3-methyl-naphthalen-2-yl}-acetic acid] is 59 nM; for `COc1ccccc1NC(=O)N1CCC(c2c(C)c(CC(=O)O)cc3ccc(F)cc23)CC1` [Example 35, {6-Fluoro-4-[1-(2-methoxy-phenylcarbamoyl)-piperidin-4-yl]-3-methyl-naphthalen-2-yl}-acetic acid] it is 241 nM; for `Cc1c(CC(=O)O)cc2ccc(F)cc2c1C1CCN(C(=O)Nc2cccc(C(F)(F)F)c2)CC1` [Example 36] it is 437 nM.
